pIC50: −log10 of the molar value.
How the values were obtained:
IRAK3 [1] = target: T1, IRAK3 (Homo sapiens, UniProt Q9Y616); experiment: IRAK3 biochemical binding assay (LanthaScreen Eu Kinase Binding, TR-FRET); conditions: 10 nM tracer, 10 nM IRAK3, 1 hour at room temperature
T1 sequence (Q9Y616 1-596): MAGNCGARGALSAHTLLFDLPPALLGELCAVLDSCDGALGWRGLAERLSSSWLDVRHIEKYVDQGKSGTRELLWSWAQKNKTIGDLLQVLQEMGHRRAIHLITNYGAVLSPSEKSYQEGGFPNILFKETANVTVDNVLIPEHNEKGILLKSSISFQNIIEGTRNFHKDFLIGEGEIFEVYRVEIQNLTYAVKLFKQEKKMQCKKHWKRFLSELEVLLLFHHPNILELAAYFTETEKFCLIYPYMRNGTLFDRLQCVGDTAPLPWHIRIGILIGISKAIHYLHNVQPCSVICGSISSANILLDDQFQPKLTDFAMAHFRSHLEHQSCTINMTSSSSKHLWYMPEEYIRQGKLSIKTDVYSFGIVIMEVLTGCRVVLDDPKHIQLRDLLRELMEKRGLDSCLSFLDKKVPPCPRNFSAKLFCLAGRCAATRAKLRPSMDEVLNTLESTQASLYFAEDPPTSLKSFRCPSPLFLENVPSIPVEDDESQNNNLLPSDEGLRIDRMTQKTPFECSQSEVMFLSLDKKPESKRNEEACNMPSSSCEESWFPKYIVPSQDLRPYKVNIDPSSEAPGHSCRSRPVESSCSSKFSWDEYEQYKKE
Procedure: Example B3. IRAK3 Biochemical Binding Assay
The LanthaScreen® Eu Kinase Binding assay was performed as described by the vendor (ThermoFisher Scientific Waltham, MA). Briefly, 100× solutions of compound were prepared in DMSO via serial dilution of the 10 mM stock solution in a 384-well reagent plate using 3-fold intervals to achieve final concentrations. 1 μL of the compound dilution series were added to the corresponding wells of a 384-well reagent plate containing 32.3 μL of 1× buffer (50 mM HEPES pH 7.4, […], 1 mM EGTA, 0.01% Brij-35). 5 μL of the buffer diluted compounds were transferred to the corresponding wells of a 384-well assay plate. 5 μL of 3× tracer was transferred to each well of the assay plate for a final tracer concentration of 10 nM. Finally, 5 μL of the 3× Eu-Anti-GST and IRAK3 mix was transferred to each well for a final concentration of 2 nM and 10 nM, respectively. Reactions were allowed to incubate for 1 hour at room temperature. TR-FRET signal of the interaction ([…]/λem 665/λem 615) was read at room temperature with a delay time of 100 μs and an integration time of 200 μs using an Envision plate reader. Background corrected emission signal ratios at each compound concentration were used to calculate percentage of inhibition (% o Inhibition). Plots of % Inhibition versus inhibitor concentrations were fit according to a dose-response equation (Eq. 1) to generate IC50 and Hill slope values using Dotmatics software (Dotmatics, Bishops Storford, Hertfordshire, England).
(§1) Using these assays, IC50, Dmax, EC50, and DC50 values of the following compounds were determined. Dmax is defined as the maximum percent degradation achieved and DC50 is the concentration at which 50% degradation is achieved.

IRAK3 [2] = target: T1, IRAK3; experiment: IRAK endogenous HTRF degradation assay (Total-IRAK3 HTRF kit); type: cell-based; design: IRAK Endogenous HTRF Degradation Assay; endogenous in cells; conditions: endogenous IRAK3, overnight incubation; % Dmax = 100 − Ymin
Procedure: Example B2. IRAK Endogenous HTRF Degradation Assay
Cells (~50k) were plated in Cisbio 96-well low volume white plates (Cisbio: cat #66PL96005). Compounds were dissolved in DMSO and a 3-fold serial dilution was performed using a TECAN D300E. Cells were incubated with the compound overnight. Total-IRAK3 HTRF kit from Cisbio was used for degradation analysis (Cisbio: 63ADK101PEH). Cryptate and D2 antibodies were diluted in Detection buffer as per manufacturers recommendation. Then 2 μL of each solution was added to 16 μL lysate. Buffer control (lysis buffer detection buffer), Cryptate control (lysis buffer+cryptate antibody+detection buffer), and Negative control (lysis buffer+cryptate antibody+D2 antibody) were made as per manufacturers recommendation. Post incubation with antibodies the HTRF signal was measured using a Perkin Elmer Envision reader and the HTRF signal was calculated using formula: (Emission at 665 nm/Emission at 615 nm)*10,000. All HTRF values were normalized to the average value of DMSO. The average value of the DMSO control wells were set to equal 100% of the relative IRAK3 protein levels. Normalized luminescence values were plotted on a graph as a function of compound concentration. Compound concentration was plotted on the x-axis and the corresponding normalized IRAK3 protein levels on the y-axis. The EC50 value (the half-maximum effective concentration) of a compound for the degradation of the IRAK3 was calculated using a four-parameter logistic model (sigmoidal dose-response model) (FIT=(A+{(B−A)/1+[(C/x)D]})) where C is the inflection point (EC50), D is the […], and A and B are the low and high limits of the fit, respectively). The Ymin was calculated by determining the lowest percentage of target protein remaining following compound treatment. Dmax was calculated from Ymin (% Dmax=100−Ymin).
as §1

SMILES	pIC50 (IRAK3 [1])	Dmax (IRAK3 [2])
C[C@@H](Oc1cc(-c2cnn(C3CCN(CCOCCNC(=O)COc4ccc5c(c4)C(=O)N(C4CCC(=O)NC4=O)C5=O)CC3)c2)cnc1N)c1c(Cl)ccc(F)c1Cl (stereo partly drawn) [Compound 14, N-(2-(2-(4-(4-(6-amino-5-((R)-1-(2,6-dichloro-3-fluorophenyl)ethoxy)pyridin-3-yl)-1H-pyrazol-1-yl)piperidin-1-yl)ethoxy)ethyl)-2-((2-(2,6-dioxopiperidin-3-yl)-1,3-dioxoisoindolin-5-yl)oxy)acetamide]	7.15	3%
C[C@@H](Oc1cc(-c2cnn(C3CCN(CCOCCOCCOCCNC(=O)COc4cccc5c4C(=O)N(C4CCC(=O)NC4=O)C5=O)CC3)c2)cnc1N)c1c(Cl)ccc(F)c1Cl (stereo partly drawn) [Compound 11, N-(2-(2-(2-(2-(4-(4-(6-amino-5-((R)-1-(2,6-dichloro-3-fluorophenyl)ethoxy)pyridin-3-yl)-1H-pyrazol-1-yl)piperidin-1-yl)ethoxy)ethoxy)ethoxy)ethyl)-2-((2-(2,6-dioxopiperidin-3-yl)-1,3-dioxoisoindolin-4-yl)oxy)acetamide]	7.02	38%
C[C@@H](Oc1cc(-c2cnn(C3CCN(CCOCCOCCOCCOCCNC(=O)COc4ccc5c(c4)C(=O)N(C4CCC(=O)NC4=O)C5=O)CC3)c2)cnc1N)c1c(Cl)ccc(F)c1Cl (stereo partly drawn) [Compound 17, N-(14-(4-(4-(6-amino-5-((R)-1-(2,6-dichloro-3-fluorophenyl)ethoxy)pyridin-3-yl)-1H-pyrazol-1-yl)piperidin-1-yl)-3,6,9,12-tetraoxatetradecyl)-2-((2-(2,6-dioxopiperidin-3-yl)-1,3-dioxoisoindolin-5-yl)oxy)acetamide]	7.00	32%
C[C@@H](Oc1cc(-c2cnn(C3CCN(CCOCCOCCOCCOCCNC(=O)COc4cccc5c4C(=O)N(C4CCC(=O)NC4=O)C5=O)CC3)c2)cnc1N)c1c(Cl)ccc(F)c1Cl (stereo partly drawn) [Compound 12, N-(14-(4-(4-(6-amino-5-((R)-1-(2,6-dichloro-3-fluorophenyl)ethoxy)pyridin-3-yl)-1H-pyrazol-1-yl)piperidin-1-yl)-3,6,9,12-tetraoxatetradecyl)-2-((2-(2,6-dioxopiperidin-3-yl)-1,3-dioxoisoindolin-4-yl)oxy)acetamide]	7.25	33%
C[C@@H](Oc1cc(-c2cnn(C3CCN(CCOCCOCCOCCNC(=O)COc4ccc5c(c4)C(=O)N(C4CCC(=O)NC4=O)C5=O)CC3)c2)cnc1N)c1c(Cl)ccc(F)c1Cl (stereo partly drawn) [Compound 16, N-(2-(2-(2-(2-(4-(4-(6-amino-5-((R)-1-(2,6-dichloro-3-fluorophenyl)ethoxy)pyridin-3-yl)-1H-pyrazol-1-yl)piperidin-1-yl)ethoxy)ethoxy)ethoxy)ethyl)-2-((2-(2,6-dioxopiperidin-3-yl)-1,3-dioxoisoindolin-5-yl)oxy)acetamide]	7.33	25%
Cc1ncsc1-c1ccc(CNC(=O)[C@@H]2C[C@@H](O)CN2C(=O)[C@@H](NC(=O)COCCOCCOCCOCCOCCOCCOCCN2CCC(n3cc(-c4cnc(N)c(O[C@H](C)c5c(Cl)ccc(F)c5Cl)c4)cn3)CC2)C(C)(C)C)cc1 [Compound 7, (2S,4R)-1-((S)-26-(4-(4-(6-amino-5-((R)-1-(2,6-dichloro-3-fluorophenyl)ethoxy)pyridin-3-yl)-1H-pyrazol-1-yl)piperidin-1-yl)-2-(tert-butyl)-4-oxo-6,9,12,15,18,21,24-heptaoxa-3-azahexacosanoyl)-4-hydroxy-N-(4-(4-methylthiazol-5-yl)benzyl)pyrrolidine-2-carboxamide]	6.48	50%
Cc1ncsc1-c1ccc(CNC(=O)[C@@H]2C[C@@H](O)CN2C(=O)[C@@H](NC(=O)COCCOCCOCCN2CCC(n3cc(-c4cnc(N)c(O[C@H](C)c5c(Cl)ccc(F)c5Cl)c4)cn3)CC2)C(C)(C)C)cc1 [Compound 3, (2S,4R)-1-((S)-14-(4-(4-(6-amino-5-((R)-1-(2,6-dichloro-3-fluorophenyl)ethoxy)pyridin-3-yl)-1H-pyrazol-1-yl)piperidin-1-yl)-2-(tert-butyl)-4-oxo-6,9,12-trioxa-3-azatetradecanoyl)-4-hydroxy-N-(4-(4-methylthiazol-5-yl)benzyl)pyrrolidine-2-carboxamide]	6.73	42%

The next molecules have a higher pIC50 (IRAK3 [1]) than those just listed; values first:

pIC50 (IRAK3 [1])	Dmax (IRAK3 [2])	SMILES
7.60	37%	C[C@@H](Oc1cc(-c2cnn(C3CCN(CCNC(=O)COc4cccc5c4C(=O)N(C4CCC(=O)NC4=O)C5=O)CC3)c2)cnc1N)c1c(Cl)ccc(F)c1Cl (stereo partly drawn) [Compound 8, N-(2-(4-(4-(6-amino-5-((R)-1-(2,6-dichloro-3-fluorophenyl)ethoxy)pyridin-3-yl)-1H-pyrazol-1-yl)piperidin-1-yl)ethyl)-2-((2-(2,6-dioxopiperidin-3-yl)-1,3-dioxoisoindolin-4-yl)oxy)acetamide]
8.30	81%	C[C@@H](Oc1cc(-c2cnn(C3CCN(C4CCC5(CC4)CCN(C(=O)c4cccc(NC6CCC(=O)NC6=O)c4)CC5)CC3)c2)cnc1N)c1c(Cl)ccc(F)c1Cl (stereo partly drawn) [Compound 22, 3-((3-(9-(4-(4-(6-Amino-5-((R)-1-(2,6-dichloro-3-fluorophenyl)ethoxy)pyridin-3-yl)-1H-pyrazol-1-yl)piperidin-1-yl)-3-azaspiro[5.5]undecane-3-carbonyl)phenyl)amino)piperidine-2,6-dione]
7.57	37%	C[C@@H](Oc1cc(-c2cnn(C3CCN(CCOCCOCCNC(=O)COc4cccc5c4C(=O)N(C4CCC(=O)NC4=O)C5=O)CC3)c2)cnc1N)c1c(Cl)ccc(F)c1Cl (stereo partly drawn) [Compound 10, N-(2-(2-(2-(4-(4-(6-amino-5-((R)-1-(2,6-dichloro-3-fluorophenyl)ethoxy)pyridin-3-yl)-1H-pyrazol-1-yl)piperidin-1-yl)ethoxy)ethoxy)ethyl)-2-((2-(2,6-dioxopiperidin-3-yl)-1,3-dioxoisoindolin-4-yl)oxy)acetamide]
8.00	73%	C[C@@H](Oc1cc(-c2cnn(C3CCN(C4CCC5(CC4)CCN(C(=O)c4ccc6c(c4)CN(C4CCC(=O)NC4=O)C6=O)CC5)CC3)c2)cnc1N)c1c(Cl)ccc(F)c1Cl (stereo partly drawn) [Compound 20, 3-(5-(9-(4-(4-(6-amino-5-((R)-1-(2,6-dichloro-3-fluorophenyl)ethoxy)pyridin-3-yl)-1H-pyrazol-1-yl)piperidin-1-yl)-3-azaspiro[5.5]undecane-3-carbonyl)-1-oxoisoindolin-2-yl)piperidine-2,6-dione]
